# Measured values published in a melting point compilation (Tetko et al.).
row,melting point [°C],SMILES
1,161 to 163,O=C(O)c1ccc(C(F)(F)F)[nH]c1=O
2,279 to 281,O=C(O)c1c2c(nc3ccccc13)C(=Cc1ccccc1)CC2
3,68 to 70,CCOC(=O)C(C)=NNc1ccc(Br)cc1CC
4,160 to 162,COc1ccc(C(=O)NC(=O)CCl)cc1
5,258 to 262,CC(=O)N1CCN(S(=O)(=O)c2cccc(C(=O)O)c2)CC1
6,194 to 196,Nc1ccc(F)c(NC(=O)Cn2cncn2)c1
7,144 to 146,CC1(c2cccnc2)NC(=O)NC1=O (centres undefined)
8,78 to 80,Brc1cnn(-c2nccs2)c1
9,134 to 136,O=C(O)C1CCCCN1C(=O)c1ccc(Br)c(F)c1 (centres undefined)
10,253 to 255,N#Cc1ccc(=O)[nH]c1
11,207 to 209,O=C(O)C=Cc1cc(Cl)ccc1OCc1ccccc1Br
12,80 to 82,CCN(CC)S(=O)(=O)c1ccc2c(c1)CCN2
13,259 to 261,Cc1ccc2nc(-c3ccc(N4C(=O)C=CC4=O)cc3)sc2c1
14,239 to 241,Cc1cn2c(=O)c(C(=O)O)cnc2s1
15,63 to 65,COC(=O)C(C(=O)OC)c1ccc(C(F)(F)F)cc1[N+](=O)[O-]
16,233 to 235,Cc1nc2ccccc2n1CC(=O)NN
17,173 to 175,Cc1ccc(S(=O)(=O)N(C)C)cc1C(=O)O
18,36 to 38,CC(O)Cc1ccc(Br)c(F)c1 (centres undefined)
19,281 to 283,O=C1COc2cc(Br)c(Cl)cc2N1
20,98 to 100,O=C(O)c1cc(S(=O)(=O)NCCCN2CCCC2=O)ccc1Cl
21,106 to 108,OC(c1ccc(Cl)cc1)c1cccnc1 (centres undefined)
22,156 to 158,N#Cc1ccc(NCCC(N)=O)c(F)c1
23,159 to 161,CC(N)c1ccc(NC(=O)c2ccncc2)cc1 (centres undefined)

row,melting point [°C],SMILES
1,139 to 142,CC(=O)c1ccc(S(=O)(=O)N2CCCCC2)cc1
2,201 to 203,COc1ccc(Cl)cc1-c1nnc(N)o1
3,57 to 59,Ic1cnc2ccccc2c1
4,63 to 67,O=C1CCCCCN1CO
5,259 to 261,Cn1c(=O)c2nc(SCC(=O)O)[nH]c2n(C)c1=O
6,51 to 53,CC(C)(C)OC(=O)N1CCC(NCC(F)(F)F)CC1
7,112 to 114,O=C(O)CNC(=O)CCC1CCCC1
8,204 to 206,O=C1COc2ccc(F)cc2N1
9,126 to 128,CC(C)C(Br)C(=O)Nc1cc(Cl)ccc1Cl (centres undefined)
10,94 to 98,Cc1cccc(NC(S)=C(C#N)c2nc3ccccc3s2)c1C
11,61 to 63,Cc1ccc(C)n1-c1ccc(CN)cc1
12,181 to 183,Cc1ccc(C(N)=O)cc1O
13,130 to 132,CCOC(=O)c1cc(S(C)(=O)=O)ccc1N
14,47 to 49,O=C(Cc1ccccc1)C(Br)c1ccccc1 (centres undefined)
15,120 to 122,Cc1ncc(N)s1
16,99 to 101,Oc1cccc(CNCC2CC2)c1
17,129 to 131,Cc1nnc(S)n1C1CCCC(C)C1 (centres undefined)
18,216 to 218,CCCCn1c(=O)[nH]c(=O)c2cc(C(=O)O)cnc21
19,219 to 221,CCn1c(C2CCN(C(=O)OC(C)(C)C)CC2)n[nH]c1=O
20,44 to 46,CN(C)CCN1C(=O)C=CC1=O
21,115 to 117,O=C(O)c1cccc(Oc2ccc(Cl)cc2)n1
22,96 to 98,Cc1ccc(CC(=O)O)cc1C
23,134 to 136,CC(O)c1cn(CC(=O)O)nn1 (centres undefined)

row,melting point [°C],SMILES
1,145 to 147,CC(=O)Nc1ccc(S(=O)(=O)N2CCC(=O)CC2)cc1
2,109 to 111,Brc1nnc2ccccn12
3,74 to 76,CSc1ccc(N)cc1Cl
4,132 to 134,Cc1ccc(CNC(=O)n2ccnc2)cc1
5,83 to 85,CN1CCC(Nc2cccc3ccccc23)CC1
6,73 to 75,O=C1C=CC(=O)N1c1cc([N+](=O)[O-])ccc1Cl
7,55 to 57,CCOc1cc(C=O)cc(Cl)c1OC
8,150 to 152,Cn1c(=O)oc2cc(N)ccc21
9,90 to 92,Cc1cc(N)ccc1Oc1cccnc1
10,209 to 211,Cc1nc(-c2c[nH]c(C(=O)O)c2)cs1
11,111 to 113,CCOC(=O)c1nn(-c2ccccc2)cc1/C=N/O
12,181 to 183,O=C(O)c1ccc(CN2CCCCC2=O)cc1
13,80 to 84,Cc1ccc(N)cc1S(=O)(=O)N(C)C
14,123 to 125,Cn1cc(CCC(=O)O)c2ccccc21
15,151 to 153,CC1CCC2C(=O)N(C)C(=O)C2C1C(=O)O (centres undefined)
16,121 to 123,Cc1nn(C(C)(C)C)c2nc(C(C)C)cc(C(=O)O)c12
17,56 to 58,O=C1CCCc2ccc(F)cc21
18,227 to 229,CCCC(NCCC(=O)Nc1cc(C)on1)C(=O)O (centres undefined)
19,238 to 240,CC(C(=O)O)n1c(S)nc2ccccc2c1=O (centres undefined)
20,141 to 143,CCOC(=O)c1c(Cl)c2ncc(S(=O)(=O)Cl)cc2n1C
21,121 to 123,Nc1ccnc(Oc2ccccc2Cl)c1
22,62 to 64,CCOCCNC(=O)c1cccc(Br)c1
23,298 to 300,CC(C)C1CCC2(CC1)NC(=O)NC2=O (centres undefined)

row,melting point [°C],SMILES
1,160 to 162,NC(=O)N1CCc2ccccc21
2,112 to 114,Nc1ccccc1CN1CCC(O)CC1
3,219 to 221,Nc1ccnn1Cc1ccncc1
4,103 to 105,COc1ccc(OC)c(S(=O)(=O)N2CCNCC2)c1
5,94 to 96,CC(C)(C)OC(=O)NCCCC(N)=S
6,130 to 132,O=S(=O)(c1ccc(Cl)nc1)N1CCCCC1
7,160 to 162,O=C(O)CCc1ccc(S(=O)(=O)N2CCOCC2)cc1
8,124 to 126,Nc1ccc(NC(=O)c2ccccc2F)cc1C(F)(F)F
9,103 to 105,CCOC(=O)c1oc(NC)nc1C
10,97 to 99,CC1(C)NC(=O)N(CCBr)C1=O
11,231 to 233,CC(C)c1sc(N)nc1-c1ccccc1
12,194 to 197,COCCNS(=O)(=O)c1ccc(Br)c(C(=O)O)c1
13,176 to 178,Cn1c(=O)n(C)c2cc(S(=O)(=O)Cl)ccc21
14,136 to 138,Cc1ncsc1NC(=O)OC(C)(C)C
15,177 to 179,N#Cc1cnn(-c2ccc(Br)cc2)c1N
16,154 to 156,NNC(=O)Cc1ccccc1Cl
17,238 to 240,COc1ccc(NS(=O)(=O)c2ccc(C=CC(=O)O)cc2)cc1
18,104 to 106,Nc1cccc(NC(=O)CCn2cccn2)c1
19,169 to 171,Nc1ccc(S(=O)(=O)N2CCOCC2)cc1N
20,112 to 114,Nc1cnccc1CO
21,173 to 175,CCOc1cc(C(=O)O)ccc1C
22,155 to 157,O=C(CCl)NNC(=O)c1cccc(Cl)c1
23,208 to 212,CCOc1ccc(-c2nnc(S)n2N)cc1

row,melting point [°C],SMILES
1,273 to 275,CC1CC(C)(C)CC2(C1)NC(=O)NC2=O (centres undefined)
2,152 to 154,O=C(Nc1cccc(N2CCOC2=O)c1)OCC(F)(F)F
3,186 to 188,Cc1nc(-c2cc(C(=O)O)co2)cs1
4,34 to 36,Cn1ccnc1C(=O)c1ccco1
5,54 to 56,CCOC(=O)COc1ccc(C#N)cc1
6,221 to 223,O=c1c2ccccc2nc(S)n1Cc1ccc(Cl)cc1
7,187 to 189,Cc1sc2ncnc(SCCC(=O)O)c2c1C
8,188 to 190,CC1CCc2c(sc(N)c2C(N)=O)C1 (centres undefined)
9,88 to 90,CC(C)(C)NS(=O)(=O)c1ccc(Cl)c([N+](=O)[O-])c1
10,107 to 109,O=C1CC(Cc2ccc(F)cc2)C(=O)N1 (centres undefined)
11,127 to 129,NC(=S)NCCc1cccs1
12,172 to 174,Cc1cnn(CC(=O)O)c1
13,160 to 164,Nc1nc2c(F)c(F)c(F)cc2s1
14,94 to 96,NC(=O)N1CCCC1CO (centres undefined)
15,159 to 161,CN(CCCC(=O)O)C1=NS(=O)(=O)c2ccccc21
16,99 to 100,OCCOc1ccccc1O
17,93 to 95,O=C(c1ccc(F)cc1F)N1CCCNCC1
18,115 to 117,CC(C)Oc1ccc(C(=O)O)cc1N
19,212 to 214,O=C(O)c1c[nH]nn1
20,90 to 92,CCS(=O)(=O)c1nc2ccc(N)cc2s1
21,138 to 140,O=C(O)c1cccc(OCC(F)(F)F)n1
22,84 to 86,CC(C)COc1ncccc1C(=O)O
23,112 to 114,CC(=O)N1CCCCC1CC(=O)O (centres undefined)

row,melting point [°C],SMILES
1,123 to 125,NC(=O)c1cc(=NCC2CCCO2)cc[nH]1 (centres undefined)
2,144 to 146,Cc1cc2ncc(SC(=O)N(C)C)cn2n1
3,145 to 147,O=C(O)C1(C(=O)NC2CC2)CC1
4,38 to 40,CCc1nn(C)c(Cl)c1C=O
5,104 to 106,CSCCC(NS(=O)(=O)c1ccccc1F)C(=O)O (centres undefined)
6,38 to 42,CCN(Cc1ccccc1)c1ccc(C=O)cc1
7,156 to 160,O=C(O)C1CCCN(S(=O)(=O)c2ccc(F)cc2)C1 (centres undefined)
8,48 to 50,O=C(O)C1CCCS1 (centres undefined)
9,204 to 206,O=C(O)Cc1csc(NC(=O)c2ccccc2F)n1
10,117 to 119,Cc1ccc(-c2csc(CC(N)=S)n2)cc1
11,94 to 98,NC(=S)NCCc1ccccn1
12,139 to 141,O=C(CCl)Nc1ccc(N2CCCCC2)nc1
13,78 to 80,O=C(Nc1nc(C(F)(F)F)cs1)OCC(F)(F)F
14,97 to 99,NS(=O)(=O)CC1CCC1
15,86 to 90,O=C(O)Cc1ccc2c(c1)CCC2
16,68 to 70,O=C(CN1CCNCC1)Nc1cccc(F)c1
17,155 to 157,O=c1[nH]cc(S(=O)(=O)Cl)c(=O)[nH]1
18,203 to 205,CC(C)CC(N)c1nc(-c2nnc[nH]2)no1 (centres undefined)
19,93 to 95,Cc1ccc(-c2csc(Cl)n2)cc1
20,172 to 174,Cc1cc(C)c(O)c(C(=O)O)c1
21,103 to 105,NC(=O)c1ccc(CO)c(F)c1
22,202 to 204,Cc1ccc(-c2ccncc2)cc1N
23,198 to 202,Cc1cc(C(=O)O)c(C)n1Cc1ccc(S(N)(=O)=O)cc1

row,SMILES,melting point [°C]
1,O=C(CCl)NC(C1CC1)C1CC1,114 to 116
2,OCC1(NCCc2ccccc2)CCCC1,86 to 88
3,CN1CCN(c2ccc(C(F)(F)F)cc2N)CC1,178 to 180
4,O=C(c1cc(Br)c[nH]1)C(Cl)(Cl)Cl,125 to 127
5,Cc1csc(NC(=O)CCl)n1,127 to 129
6,COc1cc(C=O)cc2c1OCO2,130 to 134
